Converted amounts (≈) assume the structure as drawn.

One molecule from US12036315B2, “Pharmaceutical composition for oral administration comprising enzalutamide” (Astellas Pharma Inc., priority 2017, dated 2024) can be followed below.

The nature of this series: Solubility of enzalutamide in water. Format: physicochemical. Conditions: 20° C.±5° C. An excerpt:
The term “to improve solubility” as used herein means that the solubility, the dissolved concentration, or the dissolved rate of enzalutamide in a solvent is increased.
It is possible to obtain good solubility and/or good dissolution properties by applying the technology of the present invention. Further, it is possible to obtain good oral absorbability by applying the technology of the present invention.

`CNC(=O)c1ccc(N2C(=S)N(c3ccc(C#N)c(C(F)(F)F)c3)C(=O)C2(C)C)cc1F` [Enzalutamide, 4-{3-[4-cyano-3-(trifluoromethyl)phenyl]-5,5-dimethyl-4-oxo-2-sulfanylideneimidazolidin-1-yl}-2-fluoro-N-methylbenzamide]: the concentration in solution (solubility) came to 2 µg/mL (≈ 4.31 µM).
